Results as given in patent publication US11352344B2, “Antagonists of the muscarinic acetylcholine receptor M4” (Vanderbilt University, priority 2017, dated 2022).

Target: T1, Human M4 (Homo sapiens, UniProt P08173)
T1 construct: expressed in transfected cells; host or cells: CHO-K1 (Chinese hamster ovary) cells, stably co-transfected with Gqi5
T1 sequence (P08173 1-479): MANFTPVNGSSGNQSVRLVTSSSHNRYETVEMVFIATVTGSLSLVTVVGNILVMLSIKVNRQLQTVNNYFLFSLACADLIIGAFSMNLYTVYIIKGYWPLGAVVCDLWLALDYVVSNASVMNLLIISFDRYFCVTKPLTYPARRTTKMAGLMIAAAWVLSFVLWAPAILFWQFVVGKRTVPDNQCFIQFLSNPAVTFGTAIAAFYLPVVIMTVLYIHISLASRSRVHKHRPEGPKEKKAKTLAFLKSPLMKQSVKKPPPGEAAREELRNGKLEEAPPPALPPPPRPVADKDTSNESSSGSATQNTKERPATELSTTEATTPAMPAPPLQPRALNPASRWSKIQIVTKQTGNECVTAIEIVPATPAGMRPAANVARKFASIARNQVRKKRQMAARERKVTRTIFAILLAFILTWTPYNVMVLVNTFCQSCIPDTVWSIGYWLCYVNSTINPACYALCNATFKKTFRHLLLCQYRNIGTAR
Test: mAChR M4 cell-based functional assay (calcium flux, antagonism of EC80 acetylcholine response)
Settings: for remaining activity at 30 µM: % ACh maximum at 30 μM, human M4, read-out: Emin; for IC50: M4/Gqi5/CHO-K1 cells, decrease of response to EC80 acetylcholine
Procedure: Human or rat M4 cDNA, along with the chimeric G protein Gqi5, were transfected into Chinese hamster ovary (CHO-K1) cells purchased from the American Type Culture Collection using Lipofectamine2000. M4/Gqi5/CHO cells were grown in Ham's F-12 medium containing 10% heat-inactivated fetal bovine serum (FBS), 20 mM HEPES, 500 μg/mL G418 sulfate, and 200 μg/mL Hygromycin B.
For high throughput measurement of agonist-evoked increases in intracellular calcium, CHO-K1 cells stably expressing muscarinic receptors were plated in growth medium lacking G418 and hygromycin at 15,000 cells/20 μL/well in Greiner 384-well black-walled, tissue culture (TC)-treated, clear-bottom plates (VWR). Cells were incubated overnight at 37° C. and 5% CO2. The next day, cells were washed using an ELX 405 (BioTek) with assay buffer; the final volume was then aspirated to 20 μL. Next, 20 μL of a 2.3 μM stock of Fluo-4/acetoxymethyl ester (Invitrogen, Carlsbad, Calif.), prepared as a 2.3 mM stock in DMSO and mixed in a 1:1 ratio with 10% (w/v) Pluronic F-127 and diluted in assay buffer, was added to the wells and the cell plates were incubated for 50 min at 37° C. and 5% CO2. Dye was removed by washing with the ELX 405 and the final volume was aspirated to 20 μL. Compound master plates were formatted in a 10 point concentration-response curve (CRC) format (1:3 dilutions) in 100% DMSO with a starting concentration of 10 or 1 mM using a BRAVO liquid handler (Agilent). Test compound CRCs were then transferred to daughter plates (240 nL) using the Echo acoustic plate reformatter (Labcyte, Sunnyvale, Calif.) and then diluted into assay buffer (40 μL) to a 2× stock using a Thermo Fisher Combi (Thermo Fisher Scientific, Waltham, Mass.).
Calcium flux was measured using the Functional Drug Screening System (FDSS) 6000 or 7000 (Hamamatsu Corporation, Tokyo, Japan) as an increase in the fluorescent static ratio. Compounds were applied to cells (20 μL, 2×) using the automated system of the FDSS at 2 seconds into the protocol and the data were collected at 1 Hz. At 143 s, 10 μL of an EC20 concentration of the muscarinic receptor agonist acetylcholine was added (5×), followed by the addition of 12 μL of an EC80 concentration of acetylcholine at the 268 s time point (5×). Agonist activity was analyzed as a concentration-dependent increase in calcium mobilization upon compound addition. Positive allosteric modulator activity was analyzed as a concentration-dependent increase in the EC20 acetylcholine response. Antagonist activity was analyzed as a concentration-dependent decrease in the EC80 acetylcholine response; for the purposes of the tables herein, an IC50 (inhibitory concentration 50) was calculated as a concentration-dependent decrease of the response elicited by an EC80 concentration of acetylcholine. Concentration-response curves were generated using a four-parameter logistical equation in XLFit curve fitting software (IDBS, Bridgewater, N.J.) for Excel (Microsoft, Redmond, Wash.) or Prism (GraphPad Software, Inc., San Diego, Calif.) or the Dotmatics software platform (Dotmatics, Bishop's Stortford, UK).
Compounds were synthesized as described above. Activity (IC50 and Emin) was determined in the mAChR M4 cell-based functional assay as described above and the data are shown in Table 5. The compound numbers correspond to the compound numbers used in Examples 1-4 and Tables 1-4.

Row | SMILES | remaining activity at 30 µM [%] | IC50 [nM]
1 | Cc1cnn(C)c1-c1ccc(NC2CCC3CN(CCC(C)(C)C)CC32)nn1 (stereo not shown) [Compound 1, 2-(3,3-Dimethylbutyl)-N-[6-(2,4-dimethylpyrazol-3-yl)pyridazin-3-yl]-3,3a,4,5,6,6a-hexahydro-1H-cyclopenta[c]pyrrol-4-amine] | 31.1 | > 10000
2 | Cc1cnn(C)c1-c1ccc(NC2CCC3CN(CC45CC6CC(CC(C6)C4)C5)CC32)nn1 (stereo not shown) [Compound 2, 2-(1-adamantylmethyl)-N-[6-(2,4-dimethylpyrazol-3-yl)pyridazin-3-yl]-3,3a,4,5,6,6a-hexahydro-1H-cyclopenta[c]pyrrol-4-amine] | 8.16 | 2170
3 | Cc1cnn(C)c1-c1ccc(NC2CCC3CN(CC4CC5C=CC4C5)CC32)nn1 (stereo not shown) [Compound 3, 2-(5-bicyclo[2.2.1]hept-2-enylmethyl)-N-[6-(2,4-dimethylpyrazol-3-yl)pyridazin-3-yl]-3,3a,4,5,6,6a-hexahydro-1H-cyclopenta[c]pyrrol-4-amine] | 14 | 3280
4 | Cc1cccnc1CN1CC2CCC(Oc3ccc(-c4c(C)cnn4C)nn3)C2C1 (stereo not shown) [Compound 4, 4-[6-(2,4-Dimethylpyrazol-3-yl)pyridazin-3-yl]oxy-2-[(3-methyl-2-pyridyl)methyl]-3,3a,4,5,6,6a-hexahydro-1H-cyclopenta[c]pyrrole] | 31.9 | > 10000
5 | Cc1cnn(C)c1-c1ccc(OC2CCC3CN(CCC(C)(C)C)CC32)nn1 (stereo not shown) [Compound 5, 2-(3,3-dimethylbutyl)-4-[6-(2,4-dimethylpyrazol-3-yl)pyridazin-3-yl]oxy-3,3a,4,5,6,6a-hexahydro-1H-cyclopenta[c]pyrrole] | 9.66 | 3570
6 | Cc1cnn(C)c1-c1ccc(OC2CCC3CN(CC45CC6CC(CC(C6)C4)C5)CC32)nn1 (stereo not shown) [Compound 6, 2-(1-adamantylmethyl)-4-[6-(2,4-dimethylpyrazol-3-yl)pyridazin-3-yl]oxy-3,3a,4,5,6,6a-hexahydro-1H-cyclopenta[c]pyrrole] | 3.95 | 1030
7 | Cc1cnn(C)c1-c1ccc(OC2CCC3CN(CC4CC5C=CC4C5)CC32)nn1 (stereo not shown) [Compound 7, 2-(5-bicyclo[2.2.1]hept-2-enylmethyl)-4-[6-(2,4-dimethylpyrazol-3-yl)pyridazin-3-yl]oxy-3,3a,4,5,6,6a-hexahydro-1H-cyclopenta[c]pyrrole] | 5.46 | 1360
8 | Cc1cnn(C)c1-c1ccc(OC2CCC3CN(Cc4ccccc4)CC32)nn1 (stereo not shown) [Compound 8, 2-benzyl-4-[6-(2,4-dimethylpyrazol-3-yl)pyridazin-3-yl]oxy-3,3a,4,5,6,6a-hexahydro-1H-cyclopenta[c]pyrrole] | 43.3 | > 10000
9 | Cc1cnn(C)c1-c1ccc(OC2CCC3CN(CCc4ccccc4)CC32)nn1 (stereo not shown) [Compound 9, 4-[6-(2,4-dimethylpyrazol-3-yl)pyridazin-3-yl]oxy-2-(2-phenylethyl)-3,3a,4,5,6,6a-hexahydro-1H-cyclopenta[c]pyrrole] | 29.6 | > 10000
10 | Cc1cnn(C)c1-c1ccc(NCCC2CCC3CN(CCC(C)(C)C)CC23)nn1 (stereo not shown) [Compound 10, N-[2-[2-(3,3-Dimethylbutyl)-3,3a,4,5,6,6a-hexahydro-1H-cyclopenta[c]pyrrol-4-yl]ethyl]-6-(2,4-dimethylpyrazol-3-yl)pyridazin-3-amine] | 4.47 | 130
11 | Cc1cnn(C)c1-c1ccc(NCCC2CCC3CN(CC4CCCOC4)CC23)nn1 (stereo not shown) [Compound 11, 6-(2,4-dimethylpyrazol-3-yl)-N-[2-[2-(tetrahydropyran-3-ylmethyl)-3,3a,4,5,6,6a-hexahydro-1H-cyclopenta[c]pyrrol-4-yl]ethyl]pyridazin-3-amine] | 20.9 | > 10000

The remaining lines, values ahead:

Row | remaining activity at 30 µM [%] | IC50 [nM] | SMILES
12 | 29.4 | > 10000 | Cc1cnn(C)c1-c1ccc(NCCC2CCC3CN(CC4CCOCC4)CC23)nn1 (stereo not shown) [Compound 12, 6-(2,4-dimethylpyrazol-3-yl)-N-[2-[2-(tetrahydropyran-4-ylmethyl)-3,3a,4,5,6,6a-hexahydro-1H-cyclopenta[c]pyrrol-4-yl]ethyl]pyridazin-3-amine]
13 | 3.75 | 65 | Cc1cnn(C)c1-c1ccc(NCCC2CCC3CN(CC4CC5C=CC4C5)CC23)nn1 (stereo not shown) [Compound 13, N-[2-[2-(5-bicyclo[2.2.1]hept-2-enylmethyl)-3,3a,4,5,6,6a-hexahydro-1H-cyclopenta[c]pyrrol-4-yl]ethyl]-6-(2,4-dimethylpyrazol-3-yl)pyridazin-3-amine]
14 | 7.73 | 1780 | Cc1cccnc1CN1CC2CCC(CCNc3ccc(-c4c(C)cnn4C)nn3)C2C1 (stereo not shown) [Compound 14, 6-(2,4-dimethylpyrazol-3-yl)-N-[2-[2-[(3-methyl-2-pyridyl)methyl]-3,3a,4,5,6,6a-hexahydro-1H-cyclopenta[c]pyrrol-4-yl]ethyl]pyridazin-3-amine]
15 | 8.5 | 2260 | Cc1cnn(C)c1-c1ccc(NCCC2CCC3CN(Cc4ccccc4)CC23)nn1 (stereo not shown) [Compound 15, N-[2-(2-benzyl-3,3a,4,5,6,6a-hexahydro-1H-cyclopenta[c]pyrrol-4-yl)ethyl]-6-(2,4-dimethylpyrazol-3-yl)pyridazin-3-amine]
16 | 6.59 | 2210 | Cc1cnn(C)c1-c1ccc(NCCC2CCC3CN(CCc4ccccc4)CC23)nn1 (stereo not shown) [Compound 16, 6-(2,4-dimethylpyrazol-3-yl)-N-[2-[2-(2-phenylethyl)-3,3a,4,5,6,6a-hexahydro-1H-cyclopenta[c]pyrrol-4-yl]ethyl]pyridazin-3-amine]
17 | 5.4 | 1050 | Cc1cnn(C)c1-c1ccc(NCCC2CCC3CN(CCCc4ccccc4)CC23)nn1 (stereo not shown) [Compound 17, 6-(2,4-dimethylpyrazol-3-yl)-N-[2-[2-(3-phenylpropyl)-3,3a,4,5,6,6a-hexahydro-1H-cyclopenta[c]pyrrol-4-yl]ethyl]pyridazin-3-amine]
18 | 3.52 | 402 | Cc1cnn(C)c1-c1ccc(NCCC2CCC3CN(CC45CC6CC(CC(C6)C4)C5)CC23)nn1 (stereo not shown) [Compound 18, N-[2-[2-(1-adamantylmethyl)-3,3a,4,5,6,6a-hexahydro-1H-cyclopenta[c]pyrrol-4-yl]ethyl]-6-(2,4-dimethylpyrazol-3-yl)pyridazin-3-amine]
19 | 5.11 | 149 | Cc1cnn(C)c1-c1ccc(NCC2CCC3CN(CCC(C)(C)C)CC23)nn1 (stereo not shown) [Compound 19, N-[[2-(3,3-Dimethylbutyl)-3,3a,4,5,6,6a-hexahydro-1H-cyclopenta[c]pyrrol-4-yl]methyl]-6-(2,4-dimethylpyrazol-3-yl)pyridazin-3-amine]
20 | 4.4 | 53 | Cc1cnn(C)c1-c1ccc(NCC2CCC3CN(CC45CC6CC(CC(C6)C4)C5)CC23)nn1 (stereo not shown) [Compound 20, N-[[2-(1-adamantylmethyl)-3,3a,4,5,6,6a-hexahydro-1H-cyclopenta[c]pyrrol-4-yl]methyl]-6-(2,4-dimethylpyrazol-3-yl)pyridazin-3-amine]
